From patent US20110237659A1, “CHROMENONE DERIVATIVES AS TRPV3 ANTAGONISTS” (GLENMARK PHARMACEUTICALS S.A., priority 2008, published 2011)

Target: T1, Human TRPV3 (Homo sapiens, UniProt Q8NET8)
T1 construct: expressed in transfected cells; host or cells: CHO cells
T1 sequence (Q8NET8 1-790): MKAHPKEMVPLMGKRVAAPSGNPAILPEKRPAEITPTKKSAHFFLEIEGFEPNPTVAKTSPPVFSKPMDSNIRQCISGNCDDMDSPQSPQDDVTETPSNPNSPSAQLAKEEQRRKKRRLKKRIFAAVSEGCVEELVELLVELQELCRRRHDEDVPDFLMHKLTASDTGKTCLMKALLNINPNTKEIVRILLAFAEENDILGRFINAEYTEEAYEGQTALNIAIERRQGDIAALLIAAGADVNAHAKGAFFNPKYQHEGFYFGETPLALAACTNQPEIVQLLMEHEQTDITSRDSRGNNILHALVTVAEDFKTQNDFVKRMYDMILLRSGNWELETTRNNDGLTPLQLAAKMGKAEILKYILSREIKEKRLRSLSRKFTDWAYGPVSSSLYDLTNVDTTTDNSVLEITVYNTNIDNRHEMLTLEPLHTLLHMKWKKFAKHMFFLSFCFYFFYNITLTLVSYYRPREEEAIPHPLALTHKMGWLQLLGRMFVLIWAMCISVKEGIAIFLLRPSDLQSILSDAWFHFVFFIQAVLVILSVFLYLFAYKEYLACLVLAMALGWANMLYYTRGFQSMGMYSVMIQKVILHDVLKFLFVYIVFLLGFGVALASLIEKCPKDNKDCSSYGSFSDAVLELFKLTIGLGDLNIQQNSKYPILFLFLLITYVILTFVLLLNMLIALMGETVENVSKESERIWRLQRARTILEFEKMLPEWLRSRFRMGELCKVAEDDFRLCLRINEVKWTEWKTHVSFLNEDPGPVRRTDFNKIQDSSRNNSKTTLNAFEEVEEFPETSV
Assay: 45Calcium uptake assay: inhibition of 2-APB induced cellular uptake of radioactive calcium in human TRPV3 expressing CHO cells
Type: cell-based
Conditions: 2-APB 500 μM
Excerpt: The illustrative examples of the present invention are screened for TRPV3 activity according to a modified procedure described in (a) Tóth, A. et al. Life Sciences 2003, 73, 487-498. (b) McNamara C, R. et al. Proc. Natl. Acad. Sci. U.S.A., 2007, 104, 13525-13530. The screening of the compounds can be carried out by other methods and procedures known to persons skilled in the art.
Screening for TRPV3 Antagonist Using the ^45Calcium Uptake Assay
The inhibition of TRPV3 receptor activation was followed as inhibition of 2-aminoethxydiphenylborate (2-APB) induced cellular uptake of radioactive calcium. Test compounds were dissolved in dimethyl sulfoxide (DMSO) to prepare 20 mM stock solution and then diluted using plain medium with DMEM/F-12 containing 1.8 mM CaCl2 to get desired concentration. Final concentration of DMSO in the reaction was 0.5% (v/v). Human TRPV3 expressing CHO cells were grown in DMEM/F-12 medium with 10% FBS, 1% penicillin-streptomycin solution, 400 μg/mL of G-418. Cells were seeded 24 h prior to the assay in 96 well plates so as to get ˜50,000 cells per well on the day of experiment. Cells were treated with test compounds for 10 minutes followed by addition of 2-APB at a final concentration of 500 μM and 5 μCi/mL ^45Ca^+2 for 4 minutes. Cells were washed and lysed using buffer containing 1% Triton X-100, 0.1% deoxycholate and 0.1% SDS. Radioactivity in the lysate was measured in Packardt Top count after addition of liquid scintillant. Concentration response curves were plotted as a % of maximal response obtained in the absence of test antagonist. IC50 value was calculated from concentration response curve by nonlinear regression analysis using GraphPad PRISM software.
Percentage inhibition at concentrations of 1.0 μM and 10.0 μM are given in the table along with IC50 (nM) values for selected examples.

inhibition at 1 µM (1.0 μM test compound, read-out: Percentage inhibition at 1.0 μM): 75.8%
inhibition at 10 µM (10.0 μM test compound, read-out: Percentage inhibition at 10.0 μM): 86.7%
IC50: < 50 nM
Structure (SMILES): COc1cccc(/C=C/c2oc3cc(F)c(F)cc3c(=O)c2-c2ccc(C#N)cc2)c1OC1CCCC1 [Example 23, 4-{2-[(E)-2-[2-Cyclopentyloxy-3-methoxyphenyl)-1-ethenyl]-6,7-difluoro-4-oxo-4H-3-chromenyl}benzonitrile]
